Experimental findings from ChEMBL document CHEMBL1201862, “PubChem BioAssay data set” (2004) are described below.

Test systems include SN12C; OVCAR-3; PC-3; MDA-MB-231; COLO 205; SK-MEL-28; OVCAR-8; MCF7; K562; HCT-15; NCI-H460; MOLT-4; LOX IMVI; SR; T47D; SF-268; SF-539; SK-OV-3; MDA-MB-435; BT-549.
Common to all, as to test: NCI-60 cell line screen, 48 h

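Results reflect a 48-hour exposure of cells in 96-well plates to compound at five concentrations. GI50 = concentration required for 50% inhibition of growth.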 Activity calls are given as the source filed them. No stated cut-off is given here; in the data, active = GI50 up to about 1.1 µM and inactive = higher.

`CC(=O)/C(=N\N=C(N)N)c1ccccc1`: the GI50 with SN12C is > 100 µM (inactive); with OVCAR-3 it was > 100 µM (inactive); with PC-3 it was > 100 µM (inactive); in the assay on MDA-MB-231, > 100 µM (inactive); with COLO 205 it was 35.1 µM (inactive); with SK-MEL-28, > 100 µM (inactive). In addition, the GI50 was > 100 µM (inactive) with OVCAR-8; > 100 µM (inactive) with MCF7; > 100 µM (inactive) in the assay on K562; above 100 µM with HCT-15; > 100 µM (inactive) in the assay on NCI-H460; > 100 µM (inactive) in the assay with MOLT-4. Also, the GI50 is > 100 µM (inactive) in the assay on LOX IMVI; > 100 µM (inactive) with SR; 73.1 µM (inactive) with T47D; > 100 µM (inactive) in the assay with SF-268; > 100 µM (inactive) in the assay with SF-539; > 100 µM (inactive) in the assay on SK-OV-3. Moreover, the GI50 with MDA-MB-435 and in the assay with BT-549 was > 100 µM (inactive) throughout.

In the case of `O=[N+]([O-])C(=C(\Cl)NCCO)/C(Cl)=C(/Cl)Br`, the GI50 in the assay on SN12C is 1.98 µM (inactive); in the assay on OVCAR-3, 1.32 µM (inactive); with PC-3, 2.62 µM (inactive); with MDA-MB-231, 1.74 µM (inactive); with COLO 205, 1.38 µM (inactive); with SK-MEL-28, 2.1 µM (inactive). Also, the GI50 in the assay on OVCAR-8 was 1.87 µM (inactive); in the assay with MCF7 it was 0.716 µM (active); in the assay on K562, 0.665 µM (active); with HCT-15 it was 1.32 µM; in the assay on NCI-H460, 2.7 µM (inactive); with MOLT-4, 0.481 µM (active). Also, the GI50 in the assay with LOX IMVI was 0.885 µM (active); in the assay with SR, 1.11 µM (active); in the assay with T47D it was 1.74 µM (inactive); with SF-268, 1.62 µM (inactive); in the assay with SF-539, 2.34 µM (inactive); with SK-OV-3 it was 15 µM (inactive). The GI50 in the assay with MDA-MB-435 was 1.3 µM (inactive); in the assay on BT-549, 1.77 µM (inactive).

In the case of `CCCCCCNC(=S)N/N=C(\C)c1ccccn1`, the GI50 in the assay with SN12C is 1.41 µM (inactive); in the assay on OVCAR-3, < 0.01 µM (active); in the assay with PC-3 it was < 0.01 µM (active); in the assay with MDA-MB-231, 0.217 µM (active); with COLO 205, < 0.01 µM (active); with SK-MEL-28 it was 2.56 µM (inactive). For the same compound, the GI50 is 0.0912 µM (active) with OVCAR-8; < 0.0415 µM (active) with MCF7; < 0.01 µM (active) in the assay on K562; below 0.01 µM in the assay with HCT-15; 0.347 µM (active) in the assay on NCI-H460; < 0.01 µM (active) in the assay on MOLT-4. The GI50 with LOX IMVI was 0.0493 µM (active); in the assay with SR, < 0.01 µM (active); with T47D it was < 0.01 µM (active); in the assay on SF-268 it was 0.604 µM (active); in the assay with SF-539 it was 1.84 µM (inactive); with SK-OV-3 it was 0.181 µM (active). The GI50 with MDA-MB-435 is 1.53 µM (inactive); with BT-549, 0.111 µM (active).

Regarding `CSc1nc(N)c(NC2OC(CO)C(O)C2O)c(=O)[nH]1` (stereo not given), the GI50 in the assay with SN12C, in the assay with OVCAR-3, in the assay with PC-3, in the assay with MDA-MB-231, in the assay on COLO 205 and with SK-MEL-28 was > 100 µM (inactive) in each case. Besides, the GI50 with OVCAR-8 is > 100 µM (inactive); with MCF7, > 100 µM (inactive); in the assay on K562, > 100 µM (inactive); with HCT-15, above 100 µM; with NCI-H460 it was > 100 µM (inactive); with MOLT-4, > 100 µM (inactive). Moreover, the GI50 in the assay on LOX IMVI, with SR, with T47D, in the assay with SF-268, in the assay with SF-539 and with SK-OV-3 was > 100 µM (inactive) in each case. Also, the GI50 in the assay on MDA-MB-435 and in the assay with BT-549 was > 100 µM (inactive) in each case.

With `O=C(CC(c1ccccc1)c1c(O)c2ccccc2oc1=O)c1ccccc1` (stereo not given), the GI50 was > 87.9 µM (inactive) in the assay on SN12C; 30.4 µM (inactive) with OVCAR-3; > 93.3 µM (inactive) with PC-3; > 100 µM (inactive) with MDA-MB-231; 59.7 µM (inactive) in the assay on COLO 205; 72.1 µM (inactive) in the assay on SK-MEL-28. For the same compound, the GI50 was > 100 µM (inactive) in the assay with OVCAR-8; > 85.9 µM (inactive) in the assay on MCF7; 61.5 µM (inactive) in the assay on K562; 78.9 µM with HCT-15; 65.5 µM (inactive) in the assay on NCI-H460; 84.9 µM (inactive) in the assay with MOLT-4. For the same compound, the GI50 with LOX IMVI is > 67.8 µM (inactive); in the assay with SR it was 44.6 µM (inactive); in the assay with T47D, 58.1 µM (inactive); in the assay with SF-268, > 100 µM (inactive); with SF-539, > 100 µM (inactive); in the assay with SK-OV-3, 67.9 µM (inactive). Besides, the GI50 was 72.6 µM (inactive) in the assay on MDA-MB-435 and 49.5 µM (inactive) in the assay with BT-549.

`Cc1ccc(C(=O)CCl)o1`: the GI50 was 3.69 µM (inactive) with SN12C; > 7.23 µM (inactive) in the assay on OVCAR-3; > 10 µM (inactive) in the assay with PC-3; > 7.31 µM (inactive) with MDA-MB-231; 3.01 µM (inactive) in the assay on COLO 205; > 10 µM (inactive) in the assay on SK-MEL-28. Besides, the GI50 is > 4.5 µM (inactive) in the assay with OVCAR-8; 3.52 µM (inactive) in the assay on MCF7; 3.93 µM (inactive) in the assay on K562; 4.93 µM with HCT-15; > 10 µM (inactive) with NCI-H460; 2.13 µM (inactive) in the assay with MOLT-4. Moreover, the GI50 in the assay with LOX IMVI was 2.98 µM (inactive); in the assay with SR it was 3.07 µM (inactive); in the assay with T47D it was 4.61 µM (inactive); in the assay with SF-268 it was > 6.97 µM (inactive); with SF-539, 4.15 µM (inactive); in the assay with SK-OV-3, > 10 µM (inactive). For the same compound, the values for the GI50 in the assay with MDA-MB-435 and with BT-549 were 3.25 µM (inactive) and 5.3 µM (inactive), respectively.

As to `Cc1cc(=O)oc2cc(OC(=O)Nc3ccccc3)ccc12`, the GI50 in the assay on SN12C was 74.6 µM (inactive); in the assay on OVCAR-3 it was 61 µM (inactive); in the assay with PC-3, 48.8 µM (inactive); in the assay with MDA-MB-231, > 100 µM (inactive); with COLO 205 it was 53.5 µM (inactive); in the assay with SK-MEL-28, > 100 µM (inactive). The GI50 is 53.3 µM (inactive) with OVCAR-8; 88.1 µM (inactive) with MCF7; 35.6 µM (inactive) in the assay on K562; 50.9 µM in the assay on HCT-15; 84.7 µM (inactive) in the assay with NCI-H460; 40.8 µM (inactive) in the assay with MOLT-4. The GI50 is > 100 µM (inactive) in the assay with LOX IMVI; 29.5 µM (inactive) in the assay with SR; 41.9 µM (inactive) with T47D; > 100 µM (inactive) in the assay on SF-268; > 100 µM (inactive) in the assay on SF-539; 70.6 µM (inactive) with SK-OV-3. In addition, the GI50 with MDA-MB-435 was > 100 µM (inactive); in the assay on BT-549, 22.9 µM (inactive).
